Laboratory results: patent EP1437117A1, “Use of Sinapic acid and/or its derivatives” (Cognis France S.A., priority 2002, dated 2004)

What was measured:
[1] = tested on: Adenosindinukleotide (ADN) der Mitochondrien; test: Protection of mitochondrial genome against oxidative stress; assay type: cell-based; conditions: damage caused by oxidative stress
Source text: Sie vermindern die Schädigung des mitochondrialen Genoms, die durch oxidativen Stress bewirkt wird und führen dadurch zu einer Verzögerung der Alterung von Mitochondrien und zu einer Verbesserung des Energiepotentials der Zellen. Somit können Sinapinsäure und ihre Derivate über die Verbesserung der mitochondrialen Funktion und Energiebilanz zum Schutz der Haut gegen Alterung und Faltenbildung, zur Steigerung effektiver Reparaturmechanismen durch Alterung und Sonneneinstrahlung geschädigter Haut und zur verbesserten Wundheilung der Haut entscheidend beitragen.

zellulärer DNA = test: UV-induced thymine dimer formation in cellular DNA; assay type: cell-based; conditions: induced by UV radiation; topical application
Source text: Es konnte festgestellt werden, dass durch die topische Anwendung von Sinapinsäure und ihren Derivaten insbesondere die Bildung von Thymin-Dimeren in zellulärer DNA, die durch UV-Strahlung induziert wird, vermindert wird. Dadurch kann die Anzahl der Mutationen gesenkt und eine Stärkung des dermalen Immunsystems bewirkt werden. Ein weiterer Gegenstand der Erfindung ist daher die Verwendung von Sinapinsäure und/oder Sinapinsäurederivaten zur Herstellung von kosmetischen und/oder dermopharmazeutischen Zubereitungen zum Schutz vor Thymin-Dimerbildung nach Einfluß von UV-Strahlung in Hautzellen und zur Verbesserung des DNA-Reparaturmechanismus in Hautzellen.

dermaler Fibroblasten = test: Collagen synthesis of dermal fibroblasts; assay type: cell-based
Source text: Die menschliche Haut enthält vorwiegend zwei Typen von Collagen: Collagen Typ I und Collagen Typ III, synthetisiert durch dermale Fibroblasten. Beide Collagentypen stellen wesentliche Strukturkomponenten der extrazellulären Matrix des Bindegewebes dar und tragen in hohem Maße zur Struktur der gesamten Haut bei. Ein wichtiges Kennzeichen alternder Haut ist die Abnahme des Collagengehaltes in der Dermis und eine damit verbundene Abnahme der Elastizität, die zusätzlich durch eine Verschlechterung der Fibroblastenfunktion durch nicht enzymatische Glycosylierung (Glycation) und oxidativen Abbau bewirkt wird. Es wurde nun festgestellt, dass Sinapinsäure und ihre Derivate die Collagensynthese dermaler Fibroblasten stimulieren und auf diese Weise die chronologische und die UV-Strahlungsinduzierte Hautalterung verzögert werden kann. Die Verwendung von Sinapinsäure und/oder Sinapinsäurederivaten zur Herstellung kosmetischer und/oder dermopharmazeutischer Zubereitungen zur Stimulation der Collagensynthese in dermalen Fibroblasten ist daher ein weiterer Gegenstand der Erfindung.

[2] = tested on: Neuropeptiden wie beispielsweise Substanz P oder CGRP; test: Release of neuropeptides; assay type: cell-based
Source text: Die Haut ist ein Gewebe, das mit einer Vielzahl von Nervenfasern durchzogen ist, deren Zellkörper in den dorsalen Ganglien (dorsal root ganglia - DRG) zusammenführen. Neurone des Typs Aδ und C erreichen mit ihren Zellen die Dermis und auch die Epidermis. Typ C Neurone sind für die Detektion von noziceptiven Stimuli verantwortlich. Keratinocyten und Nervenfasern können eine Vielzahl unterschiedlicher Cytokine produzieren, die unter dem Einfluß externer Stimuli ausgeschieden werden und die sensorischen Enden der Nervenfasern stimulieren. Diese setzen dann wiederum Peptide frei, die die metabolische Aktivität der Keratinocyten über Messenger-Moleküle beeinflussen. Auf diese Weise kommunizieren sensorische Nerven und Keratinocyten kontinuierlich miteinander. Eine Disregulation dieses physiologischen Gleichgewichts erklärt viele pathologische Erscheinungen von empfindlicher Haut oder beispielsweise Psoriasis. Es konnte nun festgestellt werden, dass Sinapinsäure und ihre Derivate insbesondere empfindliche Haut dadurch beruhigen, dass sie die Freisetzung von Neuropeptiden wie beispielsweise Substanz P oder CGRP herabsetzen.

[3] = assay type: physicochemical
Source text: Vorzugsweise wird jedoch die reine, nicht derivatisierte Sinapinsäure und deren Salze eingesetzt. […] Die entstehenden Abbauprodukte bilden gefärbte übelriechende Substanzen, die auch zu Hautreizungen führen können. Es ist daher ein weiterer Gegenstand der Erfindung Sinapinsäure und/oder ihre Derivate in verkapselter, komplexierter oder adsorbierter Form in den Zubereitungen einzusetzen. Dabei bietet sich insbesondere die Verkapselung in Liposomen oder einer hydrophoben Matrix, die Komplexierung in Cyclodextrinen und die Adsorption an hydrophobe Träger an. Bevorzugt wird Sinapinsäure und/oder ihre Derivate in Mikrokapseln eingearbeitet.

[4] = in Ethanol; cited from earlier work
[5] = tested on: Carrageenan-induzierten Rattenpfotenödem-Modell; conditions: after injection into the paw; Chawla AS et al 1993; cited from earlier work

SMILES: COc1cc(/C=C/C(=O)O)cc(OC)c1O [Sinapinsäure, 4-Hydroxy-3,5-Dimethoxy-Zimtsäure]
- Wirkung auf Adenosindinukleotide (ADN) der Mitochondrien [1]: schützende Wirkung
- Bildung von Thymin-Dimeren in zellulärer DNA (zellulärer DNA): vermindert
- Collagensynthese dermaler Fibroblasten (dermaler Fibroblasten): stimulieren
- Freisetzung von Neuropeptiden wie beispielsweise Substanz P oder CGRP [2]: herabsetzen
- chemische Stabilität [3]: leicht zersetzt
- UV-Absorptionsmaximum [4]: 323 nm
- anti-inflammatorische Wirkung [5]: anti-inflammatorische Wirkung
